Results on 2 compounds are retold here after PMC6081593, “Cytotoxic and Apoptotic Effects of Govaniadine Isolated from Corydalis govaniana Wall. Roots on Human Breast Cancer (MCF-7) Cells” (BioMed Research International, 2018).

Data set [1] relates to MCF-7 cells. The data set is described as follows: Cell morphology by phase contrast light microscopy. In kind it is cell-based, human. As to conditions: 1-16 μM, 24, 48 and 72 h. As for the experimental part: To determine the effect of govaniadine on the morphology of MCF-7 cells, cells (2x10^5 cells/mL) maintained in DMEM for 24 h were exposed to different concentrations (1, 2, 4, 8, and 16 μM) of govaniadine for further 24, 48, or 72 h at 37°C in 5% CO2. Control cells were treated with 0.1% DMSO. After the incubation period, morphological changes of the cells were observed and photographed on an inverted phase contrast microscope (Olympus CKX41SF, Japan).

For data set [2], the system named is MCF-7 cells. The data set is described as follows: SRB in vitro cytotoxicity assay, MCF-7. Type of data set: cell-based, human. As to conditions: for IC50: Homo sapiens, MCF7, SRB assay, read-out: IC50 (dose causing 50% inhibition) of MCF-7 cells. How it is done:
(§1) Human breast cancer cell line [MCF-7, ER^+ (ATCC, HTB-22TM)] was cultured in Dulbecco's Modified Eagle Medium (DMEM) (Invitrogen, Carlsbad, CA, USA) supplemented with 10% Fetal bovine serum (FBS), 100 U/mL of penicillin, 0.1 mg/mL streptomycin, and 0.01 mg/mL insulin. Normal mammary epithelial cell line [MCF-10A (ATCC® CRL-10317)] was grown in Mammary Epithelium Basal Medium (MEBM) (Lonza, Walkersville, MD, USA). Both MCF-7 and MCF-10A cells were maintained in a humidified incubator at 37°C with 5% CO2. All the cell lines and 10% FBS were purchased from the American type cell culture (ATCC), Rockville, MD, USA. All chemicals were purchased from Sigma-Aldrich (St. Louis, MO, USA) unless otherwise specified.
(§2) MCF-7 and MCF-10A cells were trypsinized using […] trypsin/EDTA, plated in cell culture treated 96-well plates (5 x 10^3 cells/ well) and incubated for 24 h. After incubation, cells were treated with govaniadine (1, 2, 4, 8, or 16 μM) and maintained at 37°C with CO2 for 24, 48, or 72 h. After the incubation period, Sulforhodamine B (SRB) assay was performed as described previously to assess cell viability. Absorbance was read at optical density (OD) 540 nm (Synergy™ HT, BioTek, USA) and percentage cell viability was calculated. Negative controls contained only 0.1% DMSO and medium whereas paclitaxel was used as the positive control.
(In SRB staining, fixed cells bind dye roughly in proportion to their protein.)

The test system of data set [3] is MCF-7 cells. The data set is described as follows: Reactive oxygen species (NBT) assay. As to conditions: 1 and 2 μM, 24 h, vs control. In kind it is cell-based, human. How it is done:
MCF-7 cells were seeded (2x10^5 cell/mL) in 96-well plates for 24 h at 37°C in 5% CO2. After 24 h, MCF-7 cells were treated with govaniadine (1 and 2 μM) in triplicate and incubated for 24 h. Control cells were treated with 0.1% DMSO. An assay for the intracellular conversion of nitro blue tetrazolium (NBT) to formazan by superoxide anion was used to measure the generation of reactive oxygen species in cells. NTB was subsequently added at a final concentration of 1.2 mM to the wells and incubated in the dark for 1 h at 37°C. The formazan content of the cells was then solubilized with […] of DMSO, and the absorbance was measured at OD 630 nm (Synergy™ HT Multi-Mode Microplate Reader).

Data set [4] has as its system p53 mRNA. The data set is described as follows: RT-qPCR p53 mRNA expression in MCF-7 cells. Type of data set: cell-based, human. The conditions noted are these: 24 h incubation. As for the experimental part: (§3) Cells were grown in T25 flasks (2 x 10^5 cells/mL) for 24 h at 37°C in 5% CO2 and treated with govaniadine (1 and 2 μM) in triplicate and incubated for further 24 h. Control cells were treated with 0.1% DMSO. After 24 h, cells were harvested and total RNA was extracted with TRIzol® Reagent (Invitrogen; Thermo Fisher Scientific, Inc., Carlsbad, CA, USA) according to the manufacturer's protocol. cDNA synthesis and RT-qPCR were performed as described previously. RT-qPCR was performed in Stratagene Mx3000P real time PCR machine using MESA Green qPCR Master Mix Plus for SYBR Assay (Eurogentec, Seraing, Liège, Belgium). Data were normalized to an internal reference gene GAPDH, and relative gene expression was assessed using the comparative Ct method (2^−ΔΔCt).
For orientation: In qPCR the cycle at which signal appears reflects the starting amount.

Data set [5] relates to Survivin mRNA. Put plainly: RT-qPCR survivin mRNA expression in MCF-7 cells. In kind it is cell-based, human. As to conditions: 24 h incubation. How it is done:
as §3

Data set [6] relates to MCF-7 cells. The data set is described as follows: DNA fragmentation analysis (gel electrophoresis). Type of data set: cell-based, human. As to conditions: MCF-7 cells, 4, 8, 16 μM, 48 or 72 h. How it is done:
MCF-7 cells (2x10^5 cell/mL) were treated with 4, 8, and 16 μM doses of govaniadine incubated for 48 or 72 h, respectively. Medium containing 0.1% DMSO and thymoquinone were used as negative and positive controls, respectively. After the incubation period, DNA fragmentation was analyzed as described by. Gel electrophoresis was carried out with extracted DNA and visualized under UV light to assess the effect on DNA fragmentation (Quantum-ST4 1100/20 M; Fisher Biotec Pty Ltd., Wembley, Australia) following electrophoresis on a 2.0% agarose gel stained with ethidium bromide (EB).

Data set [7] relates to MCF-7 cells. Put plainly: Intracellular glutathione S-transferase (GST) measurement. Type of data set: cell-based, human. The conditions noted are these: 1 and 2 μM, 24 h, vs control. How it is done:
(§4) MCF-7 cells were seeded (2x10^5 cell/mL) in 24-well plates and maintained for 24 h at 37°C in 5% CO2. Then the cells were exposed to different concentrations of govaniadine (1 and 2 μM) for further 24 h. Control cells were treated with 0.1% DMSO. After 24 h, cells were trypsinized and pelleted. Cell suspension of approximately 10^6 cells per mL in an appropriate buffer was prepared and homogenized using sonication in ice. Cell homogenate was transferred to 1.5 mL eppendorf tubes and centrifuged at 15,000 rpm for 10 min at 4°C. The resulting supernatant (cell lysate) was transferred to a new 1.5 mL micro centrifuge tube and kept on ice. Total amount of protein present in the cell lysate was determined using bovine serum albumin (BSA) as the standard. Reduced GSH was estimated as described previously. The activity of GST was determined as described by. Intracellular GSH and GST levels were expressed as μM/mg of cell lysate protein.

Data set [8] concerns caspase-7. The data set is described as follows: Caspase-Glo 3/7 assay of caspase 7 activity in MCF-7 cells. Type of data set: cell-based, human. The conditions noted are these: 1 μM (P<0.05) and 2 μM (P<0.01), 24 h, vs control. As for the experimental part: MCF-7 cells (2 x 10^5 cells/mL) were seeded in 96-well plates and maintained for 24 h at 37°C in 5% CO2. After 24 h, cells were exposed to govaniadine (1 and 2 μM) for further 24 h. Control cells were treated with 0.1% DMSO. Caspase-Glo® 3/7 assay (Promega, Madison, WI, USA) was used to measure caspase 7 activity according to the manufacturer's instructions, and luminescence was measured using a luminescence plate reader (Synergy™ HT, BioTek, USA).

Data set [9] has as its system MCF-10A cells. The data set is described as follows: SRB in vitro cytotoxicity assay, MCF-10A. Type of data set: cell-based. The conditions noted are these: Homo sapiens, read-out: IC50 against MCF-10A cells. How it is done: as §1, §2
The subject of data set [10] is MCF-7 cells. Put plainly: Annexin V/PI flow cytometry apoptosis detection. Type of data set: cell-based, human. The conditions noted are these: 24 h; for early apoptotic cells: upper left quadrant; for late apoptotic cells: upper right quadrant. How it is done:
MCF-7 cells (2x10^5 cell/mL) cultured in T25 cell culture flasks for 24 h at 37°C in 5% CO2 were exposed to govaniadine (4, 8, and 16 μM) for further 24 h. Control cells were treated with 0.1% DMSO. After 24 h, apoptosis mediated by the govaniadine on MCF-7 cells was detected by the Annexin V/ Propidium Iodide (PI) apoptosis detection kit (Santa Cruz, Texas, USA) according to the manufacturer's instructions by using a Partec Cyflow® Cube 6 Flow Cytometer. The data was analyzed with De Novo FCS Express version 4 software, and all experiments to detect apoptosis were done in triplicate.

Data set [11] concerns MCF-7 cells. Put plainly: Intracellular glutathione (GSH) measurement. Type of data set: cell-based, human. The conditions noted are these: 1 and 2 μM, 24 h, vs control. How it is done:
as §4

In data set [12] the test system is Bax mRNA. The data set is described as follows: RT-qPCR Bax mRNA expression in MCF-7 cells. Type of data set: cell-based, human. As to conditions: 24 h incubation. How it is done: as §3
For data set [13], the system named is MCF-7 cells. Put plainly: Cell morphology and nuclear changes by AO/EB and Hoechst staining. As to conditions: 2-16 μM, 24 h. Type of data set: cell-based, human. How it is done: MCF-7 cells harvested by trypsinization upon reaching 70-80% confluence were seeded (5x10^4 cells/well) on cell culture treated cover slips placed in a 24-well cell culture plate and exposed to different concentrations (2, 4, 8, and 16 μM) of govaniadine for 24 h at 37°C in 5% CO2. Control cells were treated with 0.1% DMSO. After 24 h, cells were fixed with 4% formaldehyde, and AO/EB solution (10 μL) and Hoechst stain (0.005 mg/mL, 10 μL) were added for 2–5 min. Cells were then observed under a fluorescence microscope (Olympus Co., Tokyo, BX51TRF, Japan).

Read-outs that look alike come from different tables or passages of the source.

For `COc1ccc2c(c1O)C1Cc3cc4c(cc3CN1CC2)OCO4` (stereo not drawn) [govaniadine], the “Morphological changes (phase contrast microscopy)” value in [1] is “increased the number of apoptotic cells”. Also, the IC50 (in general, the concentration needed to halve the response being measured) in data set [2] (24 h postincubation) was found to be 3.05 ± 0.27 µM; in data set [2] (48 h postincubation), 2.52 ± 0.31 µM; in data set [2] (72 h postincubation), 1.6 ± 0.23 µM; in data set [9] (24 h postincubation), 269 ± 0.25 µM; in data set [9] (48 h postincubation), 223.4 ± 0.32 µM; in [9] (72 h postincubation), 194.9 ± 0.24 µM. Besides, the “Selectivity of cytotoxicity, MCF-7 versus MCF-10A cells” value in data set [2] (comparison of IC50 values in MCF-7 and MCF-10A with reference drug) is listed as “more selective towards MCF-7 cells than the paclitaxel”. Further, the ROS production result in data set [3] was “dose-dependent significant (p<0.05) increase”. For the same compound, the “p53 mRNA fold change” value in [4] (1 μM) is 11.37 fold; in data set [4] (2 μM), 15.42 fold. For the same compound, in data set [5] (1 μM), the “survivin mRNA fold increase” value was 9.08 fold. Further, the survivin gene expression result in [5] (2 μM) is “not regulated”. In addition, the DNA fragmentation result in data set [6] was “DNA fragmentation in a time- and dose-dependent manner”. For the same compound, the GST level result in data set [7] is “increased significantly”. Moreover, the Caspase-7 activity result in data set [8] is “activated significantly”. Besides, the early apoptotic cells is on record as 3.31% in data set [10] (4 μM) and 7.33% in data set [10] (16 μM). Moreover, the results for the late apoptotic cells in data set [10] (4 μM) and in data set [10] (16 μM) were 11.15% and 41.42%, respectively. Besides, in data set [10] (Homo sapiens, MCF7, 4 μM, lower left quadrant, read-out: intact viable cells), the viability at 4 µM is 78.6%. Moreover, the viability at 8 µM in data set [10] (Homo sapiens, MCF7, 8 μM, lower left quadrant, read-out: intact viable cells) was 61.1%. In addition, the viability at 16 µM in data set [10] (Homo sapiens, MCF7, 16 μM, lower left quadrant, read-out: intact viable cells) was determined as 36.8%. Further, the “Intracellular GSH level” value in [11] is given as “decreased significantly”. Moreover, the “Bax mRNA fold change” value turned out to be 5.07 fold in data set [12] (1 μM) and 11.66 fold in data set [12] (2 μM). For the same compound, in [13], the “Nuclear changes (Hoechst 33258 staining)” value is listed as “Nuclei with brighter hypercondensed chromatin”.
With `CC(=O)O[C@H]1C(=O)[C@@]2(C)[C@H]([C@H](OC(=O)c3ccccc3)[C@]3(O)C[C@H](OC(=O)[C@H](O)[C@@H](NC(=O)c4ccccc4)c4ccccc4)C(C)=C1C3(C)C)[C@]1(OC(C)=O)CO[C@@H]1C[C@@H]2O` [paclitaxel, reference compound], the IC50 is 2.21 ± 0.15 µM in data set [2] (24 h postincubation); 0.13 ± 0.05 µM in data set [2] (48 h postincubation); 0.0089 ± 0.006 µM in [2] (72 h postincubation); 11.9 ± 1.5 µM in [9] (24 h postincubation); 6.06 ± 2.45 µM in data set [9] (48 h postincubation); 3.11 ± 1.98 µM in data set [9] (72 h postincubation).
